The values below come from patent US20090304625A1, “MODULATORS OF CARDIAC CELL HYPERTROPHY AND HYPERPLASIA” (priority 2006, published 2009).

One test deals with mast cells (MCs). As to the kind of experiment: Mast cell density in LV of WT mice treated with cromolyn. Type of test: in vivo, mouse. The following applies: cromolyn 60 mg/kg/day. The source says:
(§1) Induction of pressure overload: At eight weeks of age, WT or Kit^w/Kit^w-v mice were subjected to suprarenal aortic constriction (SAC) to induce hypertension and, thus, pressure overload, or to sham operation, as previously described (M. Li et al. (2004)). One group (both SAC and sham-operated animals) was allowed to recover from surgery for 2 days and animals surviving this peri-operative period were then followed for survival over the next 28 days. A second group were sacrificed at 3, 7 or 14 days after SAC, and a third group was treated with the mast cell stabilizer, sodium chromoglycate (60 mg/kg/day, intraperitoneal, osmotic minipump) for one week before and then for the 7 days after surgery, at which time they were sacrificed.

The next test concerns c-kit+ CSCs. The test can be described thus: c-kit+ cardiac stem cell numbers in LV of 7-day-SAC WT mice. It is filed as in vivo, mouse. The conditions noted are these: cromolyn 60 mg/kg/day started 7 days before SAC, n=5.
Text: as §1, with “sacrificed. […] There are several different but overlapping types of CSCs, which are grouped according to cell surface markers, e.g., ckit+, Sca1+, MDR1+, isl1+, e-kit+ CSCs differentiated into cardiomyocytes contributing to repair of a damaged heart. […] In the W/W^v- and WT-SAC LV myocardium, c-kit^+ CSCs occurred individually, in pairs or in large clusters. c-kit^+ CSC clusters were not seen in the LVs of WT- or […] were rare in WT-SAC mice. Compared to sham controls, 7 days of SAC increased c-kit^+ CSCs 19-fold in the […]<0.001; FIG. 6A). Compared to the WT-SAC LV, the increase was 5.5-fold (P<0.01; FIG. 6A). […]” for “sacrificed.”

For the next test, the system named is tumor angiogenesis. The following applies: mouse tumor xenograft models; cited from earlier work.
Test [1] deals with tumor cells grown in culture. The following applies: cited from earlier work.
Test [2] concerns human umbilical vein endothelial cells. The conditions noted are these: in culture, cited from earlier work.
The test system of test [3] is subcutaneous xenograft tumors. The following applies: cited from earlier work; for growth of tumor cells grown as subcutaneous xenografts: athymic mice.

Regarding `O=C(O)c1cc(=O)c2c(OCC(O)COc3cccc4oc(C(=O)O)cc(=O)c34)cccc2o1` [cromolyn, sodium chromoglycate], in the test on mast cells (MCs), the “reduction of MC density” value is “approximately 80%”. The MC density in the test on mast cells (MCs) (n=4) was found to be 0.45±0.2 MCs/mm^2. In addition, the “c-kit+ CSCs” value with c-kit+ CSCs worked out at 38±3 CSCs/mm^2.
`Cc1cc(C)c(/C=C2\C(=O)Nc3ccccc32)[nH]1` [SU5416]: in the test with tumor angiogenesis, the “tumor angiogenesis in vivo” value is on record as “inhibit tumor angiogenesis in vivo”. In test [1], the “growth of tumor cells grown in culture” value was “neither compound potently inhibits”. Moreover, in test [2] (VEGF-induced), the “VEGF-induced proliferation of human umbilical vein endothelial cells” value is “inhibits”. For the same compound, in test [3], the “growth of tumor cells grown as subcutaneous xenografts” value was “inhibit the growth”.
In the case of `Cc1[nH]c(/C=C2\C(=O)Nc3ccccc32)c(C)c1CCC(=O)O` [SU6668], the “tumor angiogenesis in vivo” value with tumor angiogenesis was “inhibit tumor angiogenesis in vivo”. For the same compound, the “growth of tumor cells grown in culture” value in test [1] is “neither compound potently inhibits”. In addition, the “VEGF- and FGF-induced proliferation of human umbilical vein endothelial cells” value in test [2] (VEGF- and FGF-induced) was “inhibits”. For the same compound, in test [3], the “growth of tumor cells grown as subcutaneous xenografts” value is on record as “inhibit the growth”. In test [3] (mice), the “regression of established xenograft tumors” value was “causes regression”.
